Measured values reported in patent US20180353445A1, “METHODS AND COMPOSITIONS RELATING TO PROTEASOME INHIBITOR RESISTANCE” (Whitehead Institute for Biomedical Research, priority 2017, published 2018).

Tests used:
K562 cells = assay: K562 viability and cell proliferation (relative cell number count), incl. FDX1 KO cells; assay type: cell-based, human; conditions: FDX1-null cell line versus non-targeting control sgRNA
Excerpt: Despite its use in clinical trials on a limited number of malignancies, the elesclomol mechanism of action remains unclear. We therefore undertook a genetic approach to identify its direct target and to define cellular pathways that modulate the sensitivity of cancer cells to elesclomol-induced toxicity. […] We measured the relative abundance of each sgRNA in the compound-treated K562 cells at the beginning and end of the culture period. For each gene, we calculated its score as the mean log2 fold-change in abundance of all sgRNAs targeting the gene. […]
Viability and cell proliferation assays—Relative cell number count protocol—The viability of K562 cells was conducted by seeding cells at 250,000 cells/mL in 6-well plates of RPMI. […] Viable cell numbers were counted using countess (Invitrogen) every 2-3 days and cells were reseeded at 250,000 cells/mL in 6-well plates of RPMI to continue growth.
The viability of FDX1 KO K562 cells and AAVS1 KO and WT controls was examined by plating 100,000 cells/mL in 6-well cells in RPMI media (without glucose containing dialyzed serum) with either 10 mM glucose or 10 mM galactose. Viable cell numbers were counted every day using countess (Invitrogen).

[1] = system: MCF7, HEK293 and T47D cells; assay: Viability of cells grown in glucose (glycolytic) vs galactose (Hi-OXPHOS); assay type: cell-based, human
Experimental: FIGS. 40A-40D: Cancer cell metabolism alters sensitivity to elesclomol.
FIGS. 41A-41B: Cancer cell metabolism alters sensitivity to elesclomol.
FIGS. 51A-51D: Elesclomol preferentially targets cells in the Hi-OXPHOS state. […] The relative cell growth (color coded) was analyzed 72 hours post compound addition. Plotted are the mean SD of at least three replicas and the calculated EC50s (FIGS. 51B-51C). […] Reactive groups are indicated with a colored circle.
FIGS. 57A-57C: Elesclomol preferentially targets cells in the Hi-OXPHOS state. […] Analogs named compound 1-6. […] Plotted are the mean SD of at least three replicas and the calculated EC50s (FIG. 57A and FIG. 57C).

FDX1 = target: T1, FDX1 (Homo sapiens, UniProt P10109); assay: Electron transfer assay, reduced FDX1 to SDA complex; assay type: biochemical; conditions: upon addition of cysteine
T1 construct: made in house
T1 sequence (P10109 62-184): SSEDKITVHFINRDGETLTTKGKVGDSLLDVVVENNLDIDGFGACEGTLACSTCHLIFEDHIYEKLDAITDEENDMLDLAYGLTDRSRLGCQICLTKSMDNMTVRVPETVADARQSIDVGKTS
Excerpt: (§1) Fe—S clusters are generated from sulfur extracted from cysteine by the iron sulfur-cluster (ISC) core complex (NFS1-ISD11-Acp-ISCU)2 and iron. A reductant (FDX1 or FDX2) is required for Fc-S cluster biosynthesis (Lill and Muhlenhoff, 2006; Py and Barras, 2010) (FIG. 53A). To investigate the effect of elesclomol on mitochondrial Fe—S cluster biosynthesis, we utilized in vitro Fe—S cluster assembly assays. […] As further confirmation, we examined the effect of elesclomol on electron transfer from reduced FDX1 to the ISC core complex upon the addition of cysteine.
Electron transfer assay—Electron transfer from re-FDX1 SDA complex was monitored as follows. 25 μM reduced FDX1 was mixed with 25 μM SDA, and 125 μM L-cysteine was added to initiate the reaction. To test the effect of the drug, samples contained 25-500 μM elesclomol (1-20× relative to FDX1). Samples were then transferred to 1 cm path-length quartz cuvettes, sealed with rubber septa, and UV/vis spectra were collected at 25° C. The growth of absorbance at 456 nm was used to monitor the oxidation of reduced FDX1 as a result of electron transfer to SDA.

FDX2 = target: T2, FDX2 (Homo sapiens, UniProt Q6P4F2); assay: In vitro Fe-S cluster assembly assay with reduced FDX2; assay type: biochemical; conditions: reduced FDX2 substituted for reduced FDX1
T2 construct: made in house
Excerpt: as §1
Protein Expression and Purification—Unlabeled samples of ISCU, unlabeled (NFS1-ISD11-Acp)2 (abbreviated as SDA), unlabeled and [U-^15N]-FDX1 (truncated first 61 amino acids) and unlabeled FDX2 were produced and purified as described previously (Cai et al., 2013; Cai et al., 2017a; Cai et al., 20176). FDX1 and FDX2 were reduced by adding a 10-fold excess of sodium dithionite to oxidized FDX1 or FDX2 in an anaerobic chamber (Coy Laboratory). The reduction of FDX1 or FDX2 was monitored by the color change from dark brown to light pink and by recording IN/vis spectra before and after reduction. […]
In vitro Fe—S cluster assembly assay—The in vitro Fe—S cluster assembly assays were carried out as follows. […] The growth of absorbance at 456 nm was used to monitor the assembly of [2Fe-2S] clusters.

T2 sequence (Q6P4F2 53-183): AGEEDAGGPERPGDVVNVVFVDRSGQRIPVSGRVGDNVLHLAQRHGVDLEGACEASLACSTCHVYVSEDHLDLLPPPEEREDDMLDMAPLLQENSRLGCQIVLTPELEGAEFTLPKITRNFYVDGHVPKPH

CN(NC(=O)CC(=O)NN(C)C(=S)c1ccccc1)C(=S)c1ccccc1 [elesclomol]
effect of loss of FDX1 protein on sensitivity (K562 cells): confers relative resistance | activity against cells in the HI-OXPHOS state [1]: preferential activity | toxicity when grown in the presence of Galactose [1]: toxicity is enhanced | sensitivity of cells utilizing mitochondria metabolism vs glycolytic cells ([1]; MCF7 and HEK293 cells): much more sensitive | inhibition of electron transfer from reduced FDX1 to the NFS1 component of the ISC core complex (FDX1): progressive inhibition of electron transfer | inhibition of in vitro Fe-S cluster assembly (FDX2): almost complete loss of inhibition
